Drawing on patent US7504420B2, “Compounds which inhibit beta-secretase activity and methods of use” (CoMentis, Inc., priority 2005, dated 2009), this text covers Ki and IC50 for 20 molecules.

Test [1] has as its target memapsin 2 (Homo sapiens, UniProt P56817). Kind of test: Inhibition of memapsin 2 catalytic activity (Ki). Format: biochemical. Conditions: memapsin 2, pH 4, 37° C.; read-out: M2K. The method in brief:
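Run at 37 °C and pH 4: compound and enzyme pre-incubated 20 min before FS-2 fluorogenic substrate started hydrolysis,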

In test [2] the target is cathepsin D (Homo sapiens, UniProt P07339). Kind of test: Inhibition of cathepsin D catalytic activity (Ki). The settings on record: pH 4.0, 37° C., read-out: CDK. Format: biochemical. How it is done: A substrate peptide NH3-ELDLAVEFWHDR-CO2 (SEQ ID NO.:1) (used for inhibition assay of memapsin 2, memapsin 1, and cathepsin D) was dissolved at 2 mg/ml in DMSO and diluted 1:100 in 0.1 M sodium acetate, pH 4.0 just prior to assay. Inhibitor dissolved in DMSO was diluted into 0.1 M sodium acetate, pH 4.0 (1:100 dilution). A […] aliquot of the inhibitor solution in pH 4 buffer was combined with […] of 0.1 M sodium acetate containing 100-200 nM of memapsin 1, memapsin 2, or cathepsin D. Following a pre-incubation at 37° C., the proteolytic assay was initated by addition of […] of the substrate diluted into pH 4 buffer, and incubation continued at 37° C. Aliquots were removed at time intervals, and combined with an equal volume of MALDI-TOF matrix (α-hydroxycinnamic acid in acetone, 20 mg/ml) and immediately spotted in duplicate onto a stainless-steel MALDI sample plate. MALDI-TOF mass spectrometry was performed on a PE Biosystems Voyager DE instrument at the Molecular Biology Resource Center on campus. The instrument was operated at 25,000 accelerating volts in positive mode with a 150 ns delay. Ions with a mass-to-charge ratio (m/z) were detected in the range of 650-2000 atomic mass units. Data were analyzed by the Voyager Data Explorer module to obtain ion intensity data for mass species of substrates and corresponding products in a given mixture. Relative product formation was calculated as the ratio of signal intensity of the product to the sum of signal intensities of both product and the corresponding substrate. Relative product formed per unit time was obtained from non-linear regression analysis of the data representing the initial 15% formation of product using the model: 1−e^−kT, where k was the relative hydrolytic rate constant and T was time in seconds. Alternatively, relative hydrolytic rates were determined using a fluorogenic cleavage assay (Ermolieff, J. et al., Biochemistry, 39: 12450-12456 (2000)). Initial rates from either method were expressed relative to uninhibited controls and the inhibition constant Ki was determined by a non-linear fit to a tight-binding model of competitive inhibition (Bieth, J., Bayer-Symposium V: Proteinase Inhibitors, pp 463-469, Spinger-Varlag, Berlin (1994)). Results are shown in Table 1 above (M2K, CDK, and M1K columns represent, respectively, the K1 values obtained for memapsin 2, cathepsin D and memapsin 1).

In test [3] the test system is Aβ production in Chinese hamster ovary cells that over-express human APP695 with the London and Swedish mutations. Kind of test: Cellular Aβ IC50 determination (Aβ40 sandwich ELISA). Conditions: 24 h. (In general: An ELISA detects its analyte on a solid surface through an enzyme-linked reagent.)
Description: The potency of compounds against memapsin 2 catalytic activity was determined in a cellular assay of Aβ production. […] Compounds are dissolved in DMSO to concentrations near 1 mM, and diluted into culture media to a final concentration near 4 μM (final 0.4% DMSO). Compounds were diluted serially and applied to cells in multi-well plates 48 h after seeding. Incubation was continued in 5% CO2 at 37 degrees C. for 24 h. Aliquots were removed and assayed for Aβ40 content using a sandwich ELISA (BioSource International). Amount of Aβ40 over the range of concentration of compounds, relative to control incubations, were fit to a 4-parameter IC50 model.
The mark [4] stands for this setting: Cricetulus griseus, CHO, read-out: Cell, Aβ40, CHO cells over-expressing human APP695 (London and Swedish mutations), 24 h.

Read-outs that look alike come from different tables or passages of the source.

Chain of memapsin 2 (P56817 46-501): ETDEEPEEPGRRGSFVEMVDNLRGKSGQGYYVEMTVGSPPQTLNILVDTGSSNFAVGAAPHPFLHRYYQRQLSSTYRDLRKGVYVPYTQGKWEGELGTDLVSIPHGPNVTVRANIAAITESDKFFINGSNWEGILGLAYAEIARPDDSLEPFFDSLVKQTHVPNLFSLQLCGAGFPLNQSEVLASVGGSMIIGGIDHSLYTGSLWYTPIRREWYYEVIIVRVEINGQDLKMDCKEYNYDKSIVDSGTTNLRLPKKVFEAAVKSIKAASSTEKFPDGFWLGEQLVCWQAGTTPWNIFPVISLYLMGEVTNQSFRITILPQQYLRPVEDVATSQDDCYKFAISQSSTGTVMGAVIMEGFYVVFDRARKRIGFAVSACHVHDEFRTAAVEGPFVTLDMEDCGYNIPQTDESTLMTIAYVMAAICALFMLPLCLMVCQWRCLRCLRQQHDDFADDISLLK
Chain of cathepsin D (P07339 65-412, species assumed): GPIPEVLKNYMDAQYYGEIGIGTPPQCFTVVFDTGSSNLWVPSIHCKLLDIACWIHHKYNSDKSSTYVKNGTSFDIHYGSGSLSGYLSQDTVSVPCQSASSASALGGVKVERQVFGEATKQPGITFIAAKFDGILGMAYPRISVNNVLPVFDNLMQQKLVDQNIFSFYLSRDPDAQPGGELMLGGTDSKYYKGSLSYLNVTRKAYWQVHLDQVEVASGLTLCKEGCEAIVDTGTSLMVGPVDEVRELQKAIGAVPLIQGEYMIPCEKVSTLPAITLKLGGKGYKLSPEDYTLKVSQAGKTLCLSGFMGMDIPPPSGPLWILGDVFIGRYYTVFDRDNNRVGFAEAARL

`CC(NCC(O)C(Cc1ccccc1)NC(=O)c1cc(C(=O)NC(C)c2ccccc2)cc(N(C)S(C)(=O)=O)c1)c1cccc(F)c1` (stereo not drawn) [N1-(4-(1-(3-fluorophenyl)ethylamino)-3-hydroxy-1-phenylbutan-2-yl)-5-(N-methylmethylsulfonamido)-N3-(1-phenylethyl)isophthalamide]: the Ki in test [1] and in test [2] was less than 300 nM throughout.
In the case of `CC(NC(=O)c1cc(C(=O)NC(Cc2ccccc2)C(O)CNCC2CCCN(C)C2)cc(N(C)S(C)(=O)=O)c1)c1ccccc1` (stereo not drawn) [N1-(3-hydroxy-4-((1-methylpiperidin-3-yl)methylamino)-1-phenylbutan-2-yl)-5-(N-methylmethylsulfonamido)-N3-(1-phenylethyl)isophthalamide], the Ki in test [1] and in test [2] was greater than 501 nM each time. Besides, the IC50 in test [3] (setting [4]) was greater than 5000 nM.
For `CC(C)c1cccc(CNCC(O)C(Cc2ccccc2)NC(=O)c2cc(C(=O)NC(C)c3ccccc3)cc(N(C)S(C)(=O)=O)c2)c1` (stereo not drawn) [N1-(3-hydroxy-4-(3-isopropylbenzylamino)-1-phenylbutan-2-yl)-5-(N-methylmethylsulfonamido)-N3-(1-phenylethyl)isophthalamide], the Ki in test [1] and in test [2] was less than 300 nM in each case. Also, in test [3] (setting [4]), the IC50 was less than 1000 nM.
Regarding `COc1cccc(CNCC(O)C(Cc2ccccc2)NC(=O)c2cc(C(=O)NC(C)c3nc(CO)co3)cc(N(C)S(C)(=O)=O)c2)c1` (stereo not drawn) [N1-(3-hydroxy-4-(3-methoxybenzylamino)-1-phenylbutan-2-yl)-N3-(1-(4-(hydroxymethyl)oxazol-2-yl)ethyl)-5-(N-methylmethylsulfonamido)isophthalamide], the Ki in test [1] is less than 300 nM; in test [2], greater than 501 nM. For the same molecule, the IC50 in test [3] (setting [4]) was less than 1000 nM.
The like results for `CC(NC(=O)c1cc(C(=O)NC(Cc2ccccc2)C(O)CNC(C)C2CCCCC2)cc(N(C)S(C)(=O)=O)c1)c1ccccc1` (stereo not drawn) [N1-(4-(1-cyclohexylethylamino)-3-hydroxy-1-phenylbutan-2-yl)-5-(N-methylmethylsulfonamido)-N3-(1-phenylethyl)isophthalamide] were, in that order, less than 300 nM, less than 300 nM and less than 1000 nM.
As to `CC(NC(=O)c1cc(C(=O)NC(Cc2ccccc2)C(O)CNCc2nc3ccccc3[nH]2)cc(N(C)S(C)(=O)=O)c1)c1ccccc1` (stereo not drawn) [N1-(4-((1H-benzo[d]imidazol-2-yl)methylamino)-3-hydroxy-1-phenylbutan-2-yl)-5-(N-methylmethylsulfonamido)-N3-(1-phenylethyl)isophthalamide], the Ki in test [1] and in test [2] was less than 300 nM throughout. Besides, the IC50 in test [3] (setting [4]) was 1000 to 5000 nM.
As to “4- or 6-fluoro-N3-(3-hydroxy-4-(3-methoxybenzylamino)-1-phenylbutan-2-yl)-N1-(1-phenylethyl)isophthalamide”, the Ki is greater than 501 nM in test [1] and less than 300 nM in test [2].
As for `CC(NC(=O)c1cc(C(=O)NC(Cc2ccccc2)C(O)CNCc2cccc(OC(F)F)c2)cc(N(C)S(C)(=O)=O)c1)c1ccccc1` (stereo not drawn) [N1-(4-(3-(difluoromethoxy)benzylamino)-3-hydroxy-1-phenylbutan-2-yl)-5-(N-methylmethylsulfonamido)-N3-(1-phenylethyl)isophthalamide], the Ki in test [1] and in test [2] was less than 300 nM throughout. Moreover, the IC50 in test [3] (setting [4]) is less than 1000 nM.
In the case of `CCc1cncc(CNCC(O)C(Cc2ccccc2)NC(=O)c2cccc(C(=O)N(C)Cc3nc(C)cs3)c2)c1` (stereo not drawn) [N1-(4-((5-ethylpyridin-3-yl)methylamino)-3-hydroxy-1-phenylbutan-2-yl)-N3-methyl-N3-((4-methylthiazol-2-yl)methyl)isophthalamide], the Ki in test [1] and in test [2] was less than 300 nM in each case. Also, the IC50 in test [3] (setting [4]) is less than 1000 nM.
For the molecule `COc1cccc(F)c1CNCC(O)C(Cc1ccccc1)NC(=O)c1cc(C(=O)NC(C)c2ccccc2)cc(N(C)S(C)(=O)=O)c1` (stereo not drawn) [N1-(4-(2-fluoro-6-methoxybenzylamino)-3-hydroxy-1-phenylbutan-2-yl)-5-(N-methylmethylsulfonamido)-N3-(1-phenylethyl)isophthalamide], the Ki in test [1] and in test [2] was less than 300 nM throughout. Further, in test [3] (setting [4]), the IC50 was less than 1000 nM.
As to `COc1cccc(CCNCC(O)C(Cc2ccccc2)NC(=O)c2cc(C(=O)NC(C)c3ccccc3)cc(N(C)S(C)(=O)=O)c2)c1` (stereo not drawn) [N1-(3-hydroxy-4-(3-methoxyphenethylamino)-1-phenylbutan-2-yl)-5-(N-methylmethylsulfonamido)-N3-(1-phenylethyl)isophthalamide], the Ki in test [1] and in test [2] was less than 300 nM each time.
`CC(NC(=O)c1cc(C(=O)NC(Cc2ccccc2)C(O)CNCc2cccc(CF)c2)cc(N(C)S(C)(=O)=O)c1)c1ccccc1` (stereo not drawn) [N1-(4-(3-(fluoromethyl)benzylamino)-3-hydroxy-1-phenylbutan-2-yl)-5-(N-methylmethylsulfonamido)-N3-(1-phenylethyl)isophthalamide]: the Ki in test [1] and in test [2] was less than 300 nM throughout. Also, the IC50 in test [3] (setting [4]) was less than 1000 nM.
Consider `COc1cccc(CNCC(O)C(Cc2ccccc2)NC(=O)c2cccc(C(=O)N(C)C(C)c3nc(C)cs3)c2)c1` (stereo not drawn) [N1-(3-hydroxy-4-(3-methoxybenzylamino)-1-phenylbutan-2-yl)-N3-methyl-N3-(1-(4-methylthiazol-2-yl)ethyl)isophthalamide], for which the Ki in test [1] and in test [2] was less than 300 nM in each case. The IC50 in test [3] (setting [4]) was less than 1000 nM.
As to `COc1cccc(CNCC(O)C(Cc2ccccc2)NC(=O)c2cc(C(=O)NC(C)c3ccccc3)c(F)cc2F)c1` (stereo not drawn) [4,6-difluoro-N1-(3-hydroxy-4-(3-methoxybenzylamino)-1-phenylbutan-2-yl)-N3-(1-phenylethyl)isophthalamide], the Ki was greater than 501 nM in test [1] and less than 300 nM in test [2]. Moreover, in test [3] (setting [4]), the IC50 lay in the range of 1000 to 5000 nM.
The like results for `CC(NC(=O)c1cc(C(=O)NC(Cc2ccccc2)C(O)CNCc2cncc(F)c2)cc(N(C)S(C)(=O)=O)c1)c1ccccc1` (stereo not drawn) [N1-(4-((5-fluoropyridin-3-yl)methylamino)-3-hydroxy-1-phenylbutan-2-yl)-5-(N-methylmethylsulfonamido)-N3-(1-phenylethyl)isophthalamide] were, in that order, less than 300 nM, less than 300 nM and less than 1000 nM.
In the case of `CNc1cccc(CNCC(O)C(Cc2ccccc2)NC(=O)c2cc(C(=O)NC(C)c3ccccc3)cc(N(C)S(C)(=O)=O)c2)c1` (stereo not drawn) [N1-(3-hydroxy-4-(3-(methylamino)benzylamino)-1-phenylbutan-2-yl)-5-(N-methylmethylsulfonamido)-N3-(1-phenylethyl)isophthalamide], the Ki in test [2] is less than 300 nM.
With `Cc1ccc(CNCC(O)C(Cc2ccccc2)NC(=O)c2cc(C(=O)NC(C)c3ccccc3)cc(N(C)S(C)(=O)=O)c2)o1` (stereo not drawn) [N1-(3-hydroxy-4-((5-methylfuran-2-yl)methylamino)-1-phenylbutan-2-yl)-5-(N-methylmethylsulfonamido)-N3-(1-phenylethyl)isophthalamide], the Ki in test [1] and in test [2] was less than 300 nM throughout.
Consider “N3-(3-hydroxy-4-(3-methoxybenzylamino)-1-phenylbutan-2-yl)-4- or 6-methyl-N1-(1-phenylethyl)isophthalamide”, for which the Ki in test [2] was less than 300 nM. In test [3] (read-out: Cell, Aβ40, CHO cells over-expressing human APP695 (London and Swedish mutations)), the IC50 lay in the range of 1000 to 5000 nM.
As for `COc1cccc(CNCC(O)C(Cc2ccccc2)NC(=O)c2cc(C(=O)NC(C)c3nccs3)cc(N(C)S(C)(=O)=O)c2)c1` (stereo not drawn) [N1-(3-hydroxy-4-(3-methoxybenzylamino)-1-phenylbutan-2-yl)-5-(N-methylmethylsulfonamido)-N3-(1-(thiazol-2-yl)ethyl)isophthalamide], in test [1], the Ki is less than 300 nM. The IC50 in test [3] (setting [4]) was less than 1000 nM.
For `CCOc1cncc(CNCC(O)C(Cc2ccccc2)NC(=O)c2cc(C(=O)NC(C)c3ccccc3)cc(N(C)S(C)(=O)=O)c2)c1` (stereo not drawn) [N1-(4-((5-ethoxypyridin-3-yl)methylamino)-3-hydroxy-1-phenylbutan-2-yl)-5-(N-methylmethylsulfonamido)-N3-(1-phenylethyl)isophthalamide], in that order: less than 300 nM and less than 1000 nM.
